Data as given in patent publication US20230055237A1, “COMPOUNDS AND METHODS FOR THE TREATMENT OF CYSTIC FIBROSIS” (Flatley Discovery Lab, LLC, priority 2019, published 2023).

Molecular target: T1, CFTR (Homo sapiens, UniProt P13569, DEL508-508)
T1 construct: Primary CF airway epithelial cells were obtained from the UNC Cystic Fibrosis Tissue Procurement and Cell Culture Core; host or cells: primary CF airway epithelial cells, differentiated at the air-liquid interface
Test: Equivalent current assay in primary CF airway epithelial cells (NAUC, combination with 1st site corrector FDL169 or VX-809)
Format: cell-based
Settings: 37° C., 24 h

[1] = test compound 1 μM in combination with 1st site corrector FDL169 (3 μM)
[2] = test compound 3 μM in combination with 1st site corrector FDL169 (3 μM)
[3] = test compound 10 μM in combination with 1st site corrector FDL169 (3 μM)
[4] = test compound 1 μM in combination with 1st site corrector VX-809 (3 μM)
[5] = test compound 3 μM in combination with 1st site corrector VX-809 (3 μM)
[6] = test compound 10 μM in combination with 1st site corrector VX-809 (3 μM)

T1 sequence (P13569 with tags, fused parts or gaps DEL508-508): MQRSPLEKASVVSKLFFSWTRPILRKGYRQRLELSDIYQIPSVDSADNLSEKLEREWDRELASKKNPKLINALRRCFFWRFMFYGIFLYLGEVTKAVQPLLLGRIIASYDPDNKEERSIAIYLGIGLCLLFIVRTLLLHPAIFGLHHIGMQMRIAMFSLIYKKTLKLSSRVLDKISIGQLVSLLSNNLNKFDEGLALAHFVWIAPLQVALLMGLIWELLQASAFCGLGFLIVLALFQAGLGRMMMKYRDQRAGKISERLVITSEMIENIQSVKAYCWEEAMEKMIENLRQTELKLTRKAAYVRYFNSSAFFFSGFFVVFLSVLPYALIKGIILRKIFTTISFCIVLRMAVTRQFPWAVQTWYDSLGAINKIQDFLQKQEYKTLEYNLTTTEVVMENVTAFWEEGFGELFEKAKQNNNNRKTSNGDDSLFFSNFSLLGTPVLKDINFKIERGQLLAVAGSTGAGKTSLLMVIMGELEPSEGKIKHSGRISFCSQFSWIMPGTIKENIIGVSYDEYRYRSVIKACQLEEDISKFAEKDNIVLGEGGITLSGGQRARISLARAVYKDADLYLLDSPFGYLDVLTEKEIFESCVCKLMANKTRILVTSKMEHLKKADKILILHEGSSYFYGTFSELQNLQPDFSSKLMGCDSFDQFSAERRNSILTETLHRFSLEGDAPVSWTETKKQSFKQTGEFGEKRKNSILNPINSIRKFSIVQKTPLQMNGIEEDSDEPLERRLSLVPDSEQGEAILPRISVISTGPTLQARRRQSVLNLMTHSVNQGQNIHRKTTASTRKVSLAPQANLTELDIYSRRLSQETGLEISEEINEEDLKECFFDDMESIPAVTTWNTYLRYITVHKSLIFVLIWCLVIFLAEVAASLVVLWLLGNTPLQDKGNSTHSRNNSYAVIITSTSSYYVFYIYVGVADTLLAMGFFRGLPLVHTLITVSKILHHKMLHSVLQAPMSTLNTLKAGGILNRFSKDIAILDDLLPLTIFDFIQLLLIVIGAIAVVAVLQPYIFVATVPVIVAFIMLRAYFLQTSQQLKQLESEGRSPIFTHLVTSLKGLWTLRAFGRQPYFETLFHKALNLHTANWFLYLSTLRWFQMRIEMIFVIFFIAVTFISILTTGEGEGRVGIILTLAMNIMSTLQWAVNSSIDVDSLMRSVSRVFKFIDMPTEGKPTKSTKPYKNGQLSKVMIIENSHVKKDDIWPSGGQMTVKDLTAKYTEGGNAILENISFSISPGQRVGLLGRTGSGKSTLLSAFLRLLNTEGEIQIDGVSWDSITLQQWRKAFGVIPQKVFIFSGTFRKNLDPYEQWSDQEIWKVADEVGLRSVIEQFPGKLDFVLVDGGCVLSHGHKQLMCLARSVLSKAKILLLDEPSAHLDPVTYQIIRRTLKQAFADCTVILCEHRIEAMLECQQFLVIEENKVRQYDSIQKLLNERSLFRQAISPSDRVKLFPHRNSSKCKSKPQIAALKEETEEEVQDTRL

Compound	Nauc @ 1 μM [1]	Nauc @ 3 μM [2]	Nauc @ 10 μM [3]	Nauc @ 1 μM [4]	Nauc @ 3 μM [5]	Nauc @ 10 μM [6]
O=C(O)[C@H]1[C@@H](C(=O)N(c2cc(Cl)cc(Cl)c2)C2CCCC2)[C@H]2CC(F)(F)CN2[C@]12C(=O)Nc1c(Cl)cc(Cl)cc12 [Example 175]	+++ (NAUC “+++” refers to an observed NAUC>170% of positive control)	+++ (NAUC “+++” refers to an observed NAUC>170% of positive control)	+++ (NAUC “+++” refers to an observed NAUC>170% of positive control)			
CN(C(=O)[C@H]1[C@H]2CC(F)(F)CN2[C@]2(C(=O)Nc3c(Cl)cc(Cl)cc32)[C@H]1C(=O)O)c1ccccc1C(F)(F)F [Example 176]	+++ (NAUC “+++” refers to an observed NAUC>170% of positive control)	+++ (NAUC “+++” refers to an observed NAUC>170% of positive control)				
O=C(O)[C@H]1[C@@H](C(=O)N(CC2CCCCC2)c2cc(Cl)cc(Cl)c2)[C@H]2CC(F)(F)CN2[C@]12C(=O)Nc1c(Cl)cc(Cl)cc12 [Example 177]	+++ (NAUC “+++” refers to an observed NAUC>170% of positive control)	++ (NAUC “++” refers to an observed NAUC 170-140% of positive control)	++ (NAUC “++” refers to an observed NAUC 170-140% of positive control)			
O=C(O)[C@H]1[C@@H](C(=O)N(CC2CCCCCC2)c2cc(Cl)cc(Cl)c2)[C@H]2CC(F)(F)CN2[C@]12C(=O)Nc1c(Cl)cc(Cl)cc12 [Example 178]	+++ (NAUC “+++” refers to an observed NAUC>170% of positive control)	+++ (NAUC “+++” refers to an observed NAUC>170% of positive control)	++ (NAUC “++” refers to an observed NAUC 170-140% of positive control)			
COc1c(Cl)cc(N(C)C(=O)[C@H]2[C@H]3CC(F)(F)CN3[C@]3(C(=O)Nc4c(Cl)cc(Cl)cc43)[C@H]2C(=O)O)cc1Cl [Example 179]	++ (NAUC “++” refers to an observed NAUC 170-140% of positive control)	++ (NAUC “++” refers to an observed NAUC 170-140% of positive control)	+++ (NAUC “+++” refers to an observed NAUC>170% of positive control)			
O=C(O)[C@H]1[C@@H](C(=O)N(CC2CC2)c2ccccc2-c2ccccc2)[C@H]2CC(F)(F)CN2[C@]12C(=O)Nc1c(Cl)cc(Cl)cc12 [Example 180]	+++ (NAUC “+++” refers to an observed NAUC>170% of positive control)	+++ (NAUC “+++” refers to an observed NAUC>170% of positive control)	+ (NAUC “+” refers to an observed NAUC <140% of positive control)			
O=C(O)[C@H]1[C@@H](C(=O)N(CC2CCCC2)c2cccc(C(F)(F)F)c2)[C@H]2CC(F)(F)CN2[C@]12C(=O)Nc1c(Cl)cc(Cl)cc12 [Example 181]	++ (NAUC “++” refers to an observed NAUC 170-140% of positive control)	+++ (NAUC “+++” refers to an observed NAUC>170% of positive control)				
CC(C)(C)CCN(C(=O)[C@H]1[C@H]2CC(F)(F)CN2[C@]2(C(=O)Nc3c(Cl)cc(Cl)cc32)[C@H]1C(=O)O)c1cc(Cl)cc(Cl)c1 [Example 182]	+++ (NAUC “+++” refers to an observed NAUC>170% of positive control)	++ (NAUC “++” refers to an observed NAUC 170-140% of positive control)				
CC(C)(C)C(C)(C)CN(C(=O)[C@H]1[C@H]2CC(F)(F)CN2[C@]2(C(=O)Nc3c(Cl)cc(Cl)cc32)[C@H]1C(=O)O)c1cc(Cl)cc(Cl)c1 [Example 185]	+++ (NAUC “+++” refers to an observed NAUC>170% of positive control)	+++ (NAUC “+++” refers to an observed NAUC>170% of positive control)	+ (NAUC “+” refers to an observed NAUC <140% of positive control)			
O=C(O)[C@H]1[C@@H](C(=O)N(CC23CC(F)(C2)C3)c2cc(Cl)cc(Cl)c2)[C@H]2CC(F)(F)CN2[C@]12C(=O)Nc1c(Cl)cc(Cl)cc12 [Example 188]	+++ (NAUC “+++” refers to an observed NAUC>170% of positive control)	++ (NAUC “++” refers to an observed NAUC 170-140% of positive control)	++ (NAUC “++” refers to an observed NAUC 170-140% of positive control)			
O=C(O)[C@H]1[C@@H](C(=O)N(CC2CC2)c2cccc(C3(C(F)(F)F)CC3)c2)[C@H]2CC(F)(F)CN2[C@]12C(=O)Nc1c(Cl)cc(Cl)cc12 [Example 189]	++ (NAUC “++” refers to an observed NAUC 170-140% of positive control)	+ (NAUC “+” refers to an observed NAUC <140% of positive control)				
O=C(O)[C@H]1[C@@H](C(=O)N(CC23CC4CC(CC(C4)C2)C3)c2cc(Cl)cc(Cl)c2)[C@H]2CC(F)(F)CN2[C@]12C(=O)Nc1c(Cl)cc(Cl)cc12 [Example 194]	++ (NAUC “++” refers to an observed NAUC 170-140% of positive control)	+++ (NAUC “+++” refers to an observed NAUC>170% of positive control)				
CN(C(=O)[C@H]1[C@H]2CC(F)(F)CN2[C@]2(C(=O)N(C)c3c(Cl)cc(Cl)cc32)[C@H]1C(=O)O)c1cc(Cl)cc(Cl)c1 [Example 200, (1′R,2′S,3R,7a′R)-5,7-dichloro-1-((3,5-dichlorophenyl)(methyl)carbamoyl)-6′,6′-difluoro-1-methyl-2-oxo-1′,2′,5′,6′,7′,7a′-hexahydrospiro[indoline-3,3′-pyrrolizine]-2′-carboxylic acid]	++ (NAUC “++” refers to an observed NAUC 170-140% of positive control)	++ (NAUC “++” refers to an observed NAUC 170-140% of positive control)	++ (NAUC “++” refers to an observed NAUC 170-140% of positive control)	+++ (NAUC “+++” refers to an observed NAUC>170% of positive control)	+++ (NAUC “+++” refers to an observed NAUC>170% of positive control)	+++ (NAUC “+++” refers to an observed NAUC>170% of positive control)
CN(C(=O)[C@H]1[C@H]2CC(F)(F)CN2[C@]2(C(=O)N(CC3CC3)c3c(Cl)cc(Cl)cc32)[C@H]1C(=O)O)c1cc(Cl)cc(Cl)c1 [Example 201]	+ (NAUC “+” refers to an observed NAUC <140% of positive control)	+ (NAUC “+” refers to an observed NAUC <140% of positive control)				
CN1C(=O)[C@]2(c3cc(Cl)cc(Cl)c31)[C@@H](C(=O)O)[C@@H](C(=O)N(CC1CC1)c1cc(Cl)cc(Cl)c1)[C@H]1CC(F)(F)CN12 [Example 202]	++ (NAUC “++” refers to an observed NAUC 170-140% of positive control)	++ (NAUC “++” refers to an observed NAUC 170-140% of positive control)	+ (NAUC “+” refers to an observed NAUC <140% of positive control)			
COCCN1C(=O)[C@]2(c3cc(Cl)cc(Cl)c31)[C@@H](C(=O)O)[C@@H](C(=O)N(CC1CC1)c1cc(Cl)cc(Cl)c1)[C@H]1CC(F)(F)CN12 [Example 203]	+ (NAUC “+” refers to an observed NAUC <140% of positive control)	+ (NAUC “+” refers to an observed NAUC <140% of positive control)				
CN(C)C(=O)CN1C(=O)[C@]2(c3cc(Cl)cc(Cl)c31)[C@@H](C(=O)O)[C@@H](C(=O)N(CC1CC1)c1cc(Cl)cc(Cl)c1)[C@H]1CC(F)(F)CN12 [Example 205]	+ (NAUC “+” refers to an observed NAUC <140% of positive control)	++ (NAUC “++” refers to an observed NAUC 170-140% of positive control)	++ (NAUC “++” refers to an observed NAUC 170-140% of positive control)			
CN1C(=O)[C@]2(c3cc(Cl)cc(Cl)c31)[C@@H](C(=O)O)[C@@H](C(=O)N(CC(C)(C)C)c1cc(Cl)cc(Cl)c1)[C@H]1CC(F)(F)CN12 [Example 207]	++ (NAUC “++” refers to an observed NAUC 170-140% of positive control)	++ (NAUC “++” refers to an observed NAUC 170-140% of positive control)				
O=C(O)[C@H]1[C@@H](C(=O)N(CC2CC2)c2cc(Cl)cc(Cl)c2)[C@H]2CC(F)(F)CN2[C@]12C(=O)N(C1CC1)c1c(Cl)cc(Cl)cc12 [Example 208, (1′R,2′S,3R,7a′R)-5,7-dichloro-1-cyclopropyl-1′-((cyclopropylmethyl)(3,5-dichlorophenyl)carbamoyl)-6′,6′-difluoro-2-oxo-1′,2′,5′,6′,7′,7a′-hexahydrospiro[indoline-3.3′-pyrrolizine]-2′-carboxylic acid]	++ (NAUC “++” refers to an observed NAUC 170-140% of positive control)	++ (NAUC “++” refers to an observed NAUC 170-140% of positive control)	+ (NAUC “+” refers to an observed NAUC <140% of positive control)			
CON(C)C(=O)[C@H]1[C@@H](C(=O)Nc2cc(Cl)cc(Cl)c2)[C@H]2CC(F)(F)CN2[C@]12C(=O)Nc1c(Cl)cc(Cl)cc12 [Example 227, (1′R,2′S,3R,7a′R)-5,7-dichloro-N1′-(3,5-dichlorophenyl)-6′,6′-difluoro-N2′-methoxy-N2′-methyl-2-oxo-1′,2′,5′,6′,7′,7a′-hexahydrospiro [indoline-3,3′-pyrrolizine]-1′,2′-dicarboxamide]				+ (NAUC “+” refers to an observed NAUC <140% of positive control)	++ (NAUC “++” refers to an observed NAUC 170-140% of positive control)	++ (NAUC “++” refers to an observed NAUC 170-140% of positive control)
